This note sets out measurements from patent US6774116B2, “Prodrugs via acylation with cinnamate” (priority 2001, dated 2004).

Common to all, as to type: in vivo, nude mice
The test system of assay [1] is Human breast cancer xenographs. The assay can be described thus: Treatment of human breast carcinoma xenographs with A—Z—CINN 361. The method, then: Human breast cancer xenographs are prepared as described (Burak et.al. 1998. Nucl. Med. Biol. 25:633-637) Xenographs are implanted s.c. into a nude mice. When the tumor reached 150-200 mm^3 in size, A—Z—CINN 361 is used to treat the tumor as follows; 0.1-1.0 mg of A—Z—CINN 361 (1 mg mAb protein with ˜25 ug paclitaxel covalently attached) is injected i.v. via tail vein into mice with the tumor. After 6 hours, mice that receive 0.1, 0.5 or 1.0 mg of A—Z—CINN 361 are anesthetized with a Ketamine/Rompun mixture. A 16G needle is used to create a hole in the skin and a 1 mm fiber optic probe is inserted up to the tumor. The tumor is exposed to white light for 5 minutes with a power of about 0.5 mW/cm^2. […] All mice are kept under “red lights” to prevent unnecessary light exposure and activation of A—Z—CINN 361 for 72 hours post injection, then returned to normal light/dark cycle.

In assay [2] the test system is Human lung carcinoma cell line H2987. Kind of assay: Treatment of human lung carcinoma H2987 xenograft with A—Z—CINN 441. The method, then: MAb BR110 is a murine mAb to a 66-kDa glycoprotein that is found on the cell surface of human lung, colon and breast tumor cells. Human lung carcinoma cell line H2987 is grown in cell culture as described (U.S. Pat. No. 5,840,854). 1×10^7 cells/mouse are implanted s.c. into a nude mice. When the tumors reached 150-200 mm^3 in size, A—Z—CINN 441 is used to treat the tumor as follows: 0.1-1.0 mg of A—Z—CINN 441 (1 mg mAb protein with ˜25 ug paclitaxel covalently attached) is injected i.v. via tail vein into mice with the tumor. After 6 hours, mice that receive 0.1, 0.5 or 1.0 mg of A—Z—CINN 441 are anesthetized with a Ketamine/Rompun mixture. A 16G needle is used to create a hole in the skin and a 1 mm fiber optic probe is inserted up to the tumor. The tumor is exposed to white light for 5 minutes with a power of about 0.5 mW/cm^2. […] All mice are kept under “red lights” to prevent light activation of the drug, for 72 hours post injection, then returned to normal light/dark cycle. […] Groups that receive antibody and free drug (unlinked) show tumor growth, and by 28 days the mice either die or have tumors>800 mm^3.
On the technique in general: A xenograft is tissue or cells of one species grown in another, often human tumour cells in immunodeficient mice.

In assay [3] the test system is Human colon carcinoma cell line LS-180. The assay can be described thus: Treatment of human colon carcinoma LS-180 xenograft with A—Z—CINN 551. The method, then: Human colon carcinoma cell line LS-180 is grown in cell culture as described (Kinuya et.al. 2001. J. Nucl. Med. 42:596-600). 1×10^7 cells/mouse are implanted s.c. into nude mice. When the tumors reached 150-200 mm^3 in size, A—Z—CINN 551 is used to treat the tumor as follows; 0.1-1.0 mg of A—Z—CINN 551 (1 mg mAb protein with ˜25 ug paclitaxel covalently attached) is injected i.v. via tail vein into mice with the tumor. After 6 hours, mice that received 0.1, 0.5 or 1.0 mg of A—Z—CINN […] are anesthetized with a Ketamine/Rompun mixture. A 16 G needle is used to create a hole in the skin and a 1 mm fiber optic probe is inserted up to the tumor. The tumor is exposed to white light for 5 minutes with a power of about 0.5 mW/cm^2. […] All mice are kept under “red lights” to prevent unnecessary light exposure and activation of A—Z—CINN 551 for 72 hours post injection, then returned to normal light/dark cycle.

The mark [4] stands for this setting: in 7 days, light treatment 6 hours after i.v. injection, 0.1, 0.5 or 1.0 mg.

Substance “NR-LU-10 mAb-S-Mal-PEG3400-N—CINN-paclitaxel [A—Z—CINN 361]” came in with a tumor shrinkage in assay [1] (setting [4]) greater than 50%. Besides, the “tumor size by 28 days” value in assay [1] (light treatment) is “less than 50 mm^3”. Further, in assay [1] (no light stimulation), the “tumor size at 28 days” value was “smaller than 100 mm^3”.

For the substance “BR110-mAb-S-Mal-PEG3400-N—CINN-paclitaxel [A—Z—CINN 441]”, the tumor shrinkage in assay [2] (setting [4]) is listed as greater than 50%. Further, in assay [2] (light treatment), the “tumors by 28 days” value is “not detectable”. The “tumor size at 28 days” value in assay [2] (no light stimulation) is listed as “smaller than 50 mm”.

For the substance “A7-mAb-S-Mal-PEG3400-N—CINN-paclitaxel [A—Z—CINN 551]”, the tumor shrinkage in assay [3] (setting [4]) is greater than 50%. Also, the “tumor size by 28 days” value in assay [3] (light treatment) is recorded as “less than 50 mm^3”. Also, the “tumor size at 28 days” value in assay [3] (no light stimulation) is given as “smaller than 100 mm^3”.
